Measurements from patent US20180072738A1, “SOLVATED FORMS OF A BRUTON'S TYROSINE KINASE INHIBITOR” (Pharmacyclics LLC, priority 2015, published 2018).
Like-named read-outs stand apart in the source and are kept apart here.

Tests used:
OCI-Ly10 = assay: Growth inhibition of OCI-Ly10 (ABC-DLBCL) cells; type: cell-based; details: Homo sapiens
OCILy10 = assay: Induction of apoptosis in OCI-Ly10 (caspase activation, Annexin-V flow cytometry, sub-G0 fraction); type: cell-based; details: increase in sub-G0 fraction
[1] = Storage stability of the crystalline form at 40° C./75% RH (XRPD); type: physicochemical; details: for crystalline form after storage: storage at 40° C. and 75% RH, duration not stated
Experimental: X-Ray powder diffraction patterns were collected on a Bruker AXS C2 GADDS or Bruker AXS D8 diffractometer.
X-Ray Powder Diffraction patterns were collected on a Bruker AXS C2 GADDS diffractometer using Cu Ka radiation (40 kV, 40 mA), automated XYZ stage, laser video microscope for auto-sample positioning and a Hi Star 2-dimensional area detector. X-ray optics consists of a single Gobel multilayer mirror coupled with a pinhole collimator of 0.3 mm. A weekly performance check is carried out using a certified standard NIST 1976 Corundum (flat plate). The beam divergence, i.e. the effective size of the X-ray beam on the sample, was approximately 4 mm. A θ-θ continuous scan mode was employed with a sample-detector distance of 20 cm which gives an effective 2θ range of 3.2°-29.7°. Typically the sample would be exposed to the X-ray beam for 120 seconds. The software used for data collection was GADDS for XP/2000 4.1.43 and the data were analysed and presented using Diffrac Plus EVA v15.0.0.0.
X-Ray Powder Diffraction patterns were collected on a Bruker D8 diffractometer using Cu Ka radiation (40 kV, 40 mA), θ-2θ goniometer, and divergence of V4 and receiving slits, a Ge monochromator and a Lynxeye detector. The instrument is performance checked using a certified Corundum standard (NIST 1976). The software used for data collection was Diffrac Plus XRD Commander v2.6.1 and the data were analysed and presented using Diffrac Plus EVA v15.0.0.0. Samples were run under ambient conditions as flat plate specimens using powder as received. The sample was gently packed into a cavity cut into polished, zero-background (510) silicon wafer. The sample was rotated in its own plane during analysis. The details of the data collection are: • Angular range: 2 to 42° 2θ • Step size: 0.05° 2θ • Collection time: 0.5 s/step

## C=CC(=O)N1CCC[C@@H](n2nc(-c3ccc(Oc4ccccc4)cc3)c3c(N)ncnc32)C1 [Compound 1, 1-((R)-3-(4-amino-3-(4-phenoxyphenyl)-1H-pyrazolo[3,4-d]pyrimidin-1-yl)piperidin-1-yl)prop-2-en-1-one]
OCI-Ly10; OCI-Ly10, 1 hour pulse, read-out: EC50 1 hour pulse (growth of OCI-Ly10)
  EC50: 50 nM
OCI-Ly10; OCI-Ly10, continuous exposure, read-out: EC50 continuous exposure (growth of OCI-Ly10)
  EC50: 10 nM
OCILy10
  induction of apoptosis: observed

## C=CC(=O)N1CCC[C@@H](n2nc(-c3ccc(Oc4ccccc4)cc3)c3c(N)ncnc32)C1 [listing 1 of 3 here]
[1]; listed as benzyl acetate solvate of Compound 1
  crystalline form after storage: does not change

## C=CC(=O)N1CCC[C@@H](n2nc(-c3ccc(Oc4ccccc4)cc3)c3c(N)ncnc32)C1 [listing 2 of 3 here]
[1]; listed as 1,1,2-trichloroethane solvate of Compound 1
  crystalline form after storage: changes to a Form A

## C=CC(=O)N1CCC[C@@H](n2nc(-c3ccc(Oc4ccccc4)cc3)c3c(N)ncnc32)C1 [listing 3 of 3 here]
[1]; one week storage at 40° C./75% RH, XRPD
  Crystallinity after storage: unaffected
